# Test results as given in US8119564B2, “Herbicidal control using sulfentrazone and metsulfuron” (FMC Corporation, priority 2009, dated 2012).
# Experiments:
# [1] = system: field violet (Viola arvensis); experiment: Post-emergent herbicidal evaluation on turf plots, wild violet control; type: in vivo
# Procedure: (§1) Test compositions containing sulfentrazone (Dismiss™ Turf Herbicide), metsulfuron methyl (BLADE™ Selective Herbicide For Turfgrass) and mixtures thereof, were diluted with water to provide the appropriate test rate concentrations.
# (§2) The size of each experimental turf plot was 5 feet by 10 feet. The application of each test composition was performed with a pressurized back-pack sprayer, calibrated to spray 30 gallons per acre. Three replications were made for each test rate along with an untreated control plot.
# (§3) Test weeds were about 3 inches tall at the time of treatment. Control of ground ivy (Glechoma hederacea) and field violet (Viola arvensis) was evaluated at 6, 14, 28, 40 and 55 days after treatment (DAT) for each test rate. In order t to provide a measure of the effectiveness of a herbicide's performance weed control ratings were based on visual observations of the presence or absence of various weeds or of symptoms (necrosis, wilting, curling of leaves, discoloration etc.) on weeds compared to lack of symptoms. Ratings are based on the 0 to 100 rating system, where 0 equals no control and 100 equals complete control, which generally makes use of direct-percentage figures. In this system the standard basis for comparison is an untreated weedy check. Counts are made of each weed species found in the untreated area of the study. This provides a basis to give a precise representation of both weed infestation and degree of control provided by various chemical treatments. Counts are made on randomly selected areas which are generally 1 square foot to 1 square yard in size. Ratings are made for each weed species found in the untreated treatments. For example, a random area in an untreated plot has 10 yellow nutsedge plants per square foot equaling 0% control. A treated plot has only 1 yellow nutsedge plant found in the randomly selected area equaling 90% control.
# (§4) Compositions of the present invention were tested for herbicidal efficacy in the manner of Example 1. Table A below summarizes the test data for ratios of sulfentrazone to metsulfuron methyl that are outside the scope of the present invention. The Colby equation expected values are also in Table A.
# [2] = system: ground ivy (Glechoma hederacea); experiment: Post-emergent herbicidal evaluation on turf plots, ground ivy control; type: in vivo
# Procedure: as §1, §2, §3, §4
# [3] = 0.01 lb/ac, 6 DAT, NIS 0.25% V/V
# [4] = 0.01 lb/ac, 14 DAT, NIS 0.25% V/V
# [5] = 0.01 lb/ac, 28 DAT, NIS 0.25% V/V
# [6] = 0.01 lb/ac, 40 DAT, NIS 0.25% V/V
# [7] = 0.01 lb/ac, 55 DAT, NIS 0.25% V/V
# [8] = 0.02 lb/ac, 6 DAT, NIS 0.25% V/V
# [9] = 0.02 lb/ac, 14 DAT, NIS 0.25% V/V
# [10] = 0.02 lb/ac, 28 DAT, NIS 0.25% V/V
# [11] = 0.02 lb/ac, 40 DAT, NIS 0.25% V/V
# [12] = 0.02 lb/ac, 55 DAT, NIS 0.25% V/V
# [13] = 0.04 lb/ac, 6 DAT, NIS 0.25% V/V
# [14] = 0.04 lb/ac, 14 DAT, NIS 0.25% V/V
# [15] = 0.04 lb/ac, 28 DAT, NIS 0.25% V/V
# [16] = 0.04 lb/ac, 40 DAT, NIS 0.25% V/V
# [17] = 0.04 lb/ac, 55 DAT, NIS 0.25% V/V
compound,measurement,setting,value
"COC(=O)c1ccccc1S(=O)(=O)NC(=O)Nc1nc(C)nc(OC)n1 [Metsulfuron Methyl, methyl 2-[[[[(4-methoxy-6-methyl-1,3,5-triazin-2-yl)amino]carbonyl]amino]sulfonyl]benzoate]","% Control of Weeds, Wild Violet Control",[1]; [3],0%
same,"% Control of Weeds, Wild Violet Control",[1]; [4],0%
same,"% Control of Weeds, Wild Violet Control",[1]; [5],58.3%
same,"% Control of Weeds, Wild Violet Control",[1]; [6],63.3%
same,"% Control of Weeds, Wild Violet Control",[1]; [7],66.7%
same,"% Control of Weeds, Wild Violet Control",[1]; [8],0%
same,"% Control of Weeds, Wild Violet Control",[1]; [9],3.3%
same,"% Control of Weeds, Wild Violet Control",[1]; [10],50%
same,"% Control of Weeds, Wild Violet Control",[1]; [11],75%
same,"% Control of Weeds, Wild Violet Control",[1]; [12],86.7%
same,"% Control of Weeds, Wild Violet Control",[1]; [13],0%
same,"% Control of Weeds, Wild Violet Control",[1]; [14],0%
same,"% Control of Weeds, Wild Violet Control",[1]; [15],51.7%
same,"% Control of Weeds, Wild Violet Control",[1]; [16],66.7%
same,"% Control of Weeds, Wild Violet Control",[1]; [17],66.7%
same,"% Control of Weeds, Ground Ivy Control",[2]; [3],5%
same,"% Control of Weeds, Ground Ivy Control",[2]; [4],33%
same,"% Control of Weeds, Ground Ivy Control",[2]; [5],83%
same,"% Control of Weeds, Ground Ivy Control",[2]; [6],96%
same,"% Control of Weeds, Ground Ivy Control",[2]; [7],97%
same,"% Control of Weeds, Ground Ivy Control",[2]; [8],0%
same,"% Control of Weeds, Ground Ivy Control",[2]; [9],20%
same,"% Control of Weeds, Ground Ivy Control",[2]; [10],75%
same,"% Control of Weeds, Ground Ivy Control",[2]; [11],94%
same,"% Control of Weeds, Ground Ivy Control",[2]; [12],100%
same,"% Control of Weeds, Ground Ivy Control",[2]; [13],0%
same,"% Control of Weeds, Ground Ivy Control",[2]; [14],36.7%
same,"% Control of Weeds, Ground Ivy Control",[2]; [15],90%
same,"% Control of Weeds, Ground Ivy Control",[2]; [16],97%
same,"% Control of Weeds, Ground Ivy Control",[2]; [17],100%
"Cc1nn(-c2cc(NS(C)(=O)=O)c(Cl)cc2Cl)c(=O)n1C(F)F [Sulfentrazone, N-[2,4-dichloro-5-[4-difluoromethyl-4,5-dihydro-3-methyl-5-oxo-1H-1,2,4-triazol-1-yl]phenyl]methanesulfonamide]","% Control of Weeds, Wild Violet Control","[1]; 0.125 lb/ac, 6 DAT",5%
same,"% Control of Weeds, Wild Violet Control","[1]; 0.125 lb/ac, 14 DAT",0%
same,"% Control of Weeds, Wild Violet Control","[1]; 0.125 lb/ac, 28 DAT",0%
same,"% Control of Weeds, Wild Violet Control","[1]; 0.125 lb/ac, 40 DAT",0%
same,"% Control of Weeds, Wild Violet Control","[1]; 0.125 lb/ac, 55 DAT",0%
same,"% Control of Weeds, Wild Violet Control","[1]; 0.25 lb/ac, 6 DAT",5%
same,"% Control of Weeds, Wild Violet Control","[1]; 0.25 lb/ac, 14 DAT",0%
same,"% Control of Weeds, Wild Violet Control","[1]; 0.25 lb/ac, 28 DAT",0%
same,"% Control of Weeds, Wild Violet Control","[1]; 0.25 lb/ac, 40 DAT",0%
same,"% Control of Weeds, Wild Violet Control","[1]; 0.25 lb/ac, 55 DAT",0%
same,"% Control of Weeds, Wild Violet Control","[1]; 0.38 lb/ac, 6 DAT",1.7%
same,"% Control of Weeds, Wild Violet Control","[1]; 0.38 lb/ac, 14 DAT",0%
same,"% Control of Weeds, Wild Violet Control","[1]; 0.38 lb/ac, 28 DAT",10%
same,"% Control of Weeds, Wild Violet Control","[1]; 0.38 lb/ac, 40 DAT",0%
same,"% Control of Weeds, Wild Violet Control","[1]; 0.38 lb/ac, 55 DAT",23.3%
same,"% Control of Weeds, Ground Ivy Control","[2]; 0.125 lb/ac, 6 DAT",11.7%
same,"% Control of Weeds, Ground Ivy Control","[2]; 0.125 lb/ac, 14 DAT",10%
same,"% Control of Weeds, Ground Ivy Control","[2]; 0.125 lb/ac, 28 DAT",0%
same,"% Control of Weeds, Ground Ivy Control","[2]; 0.125 lb/ac, 40 DAT",0%
same,"% Control of Weeds, Ground Ivy Control","[2]; 0.125 lb/ac, 55 DAT",0%
same,"% Control of Weeds, Ground Ivy Control","[2]; 0.25 lb/ac, 6 DAT",10%
same,"% Control of Weeds, Ground Ivy Control","[2]; 0.25 lb/ac, 14 DAT",13.3%
same,"% Control of Weeds, Ground Ivy Control","[2]; 0.25 lb/ac, 28 DAT",0%
same,"% Control of Weeds, Ground Ivy Control","[2]; 0.25 lb/ac, 40 DAT",0%
same,"% Control of Weeds, Ground Ivy Control","[2]; 0.25 lb/ac, 55 DAT",0%
same,"% Control of Weeds, Ground Ivy Control","[2]; 0.38 lb/ac, 6 DAT",11.7%
same,"% Control of Weeds, Ground Ivy Control","[2]; 0.38 lb/ac, 14 DAT",6.7%
same,"% Control of Weeds, Ground Ivy Control","[2]; 0.38 lb/ac, 28 DAT",3.3%
same,"% Control of Weeds, Ground Ivy Control","[2]; 0.38 lb/ac, 40 DAT",0%
same,"% Control of Weeds, Ground Ivy Control","[2]; 0.38 lb/ac, 55 DAT",0%
